# Measured values from ChEMBL document CHEMBL5136967, “Identification of molecular glues of the SLP76/14-3-3 protein-protein interaction” (RSC Med Chem, 2021).
# Species: Homo sapiens
# Test: Binding affinity to His6-tagged/Tb-labelled 14-3-3gamma (unknown origin)/His6-SUMO-tagged/AF647-labelled SLP76 (unknown origin) expressed in Noco21 (DE3) cells assessed as fold change in KD improvement by HTRF assay
row,Structure (SMILES),fold change (FC)
1,CC(C)CNC(=O)c1ccc2c(c1)nc1n2CCN(C(C)C)C1=O,5.2
2,COc1ccccc1-c1nnc2scnn12,11
3,O=C(Cn1nc(C(F)(F)F)c2c1CCCC2)Nc1ccc(Cl)c(Cl)c1,14.6
4,O=C(c1ccc(Cl)cc1)n1c(Cn2nnc(-c3cccc4ccccc34)n2)n[nH]c1=S,1.8
5,CC1=Nn2c(nnc2-c2ccoc2C)SC1,1.4
6,O=C1OC[C@@H]2CCN(Cc3ccccc3)Cc3ccccc3N12,3.3
7,CC(C)N1CC[C@H]2COC(=O)N2c2cc(F)ccc2C1,4.1
8,S=c1[nH]nc(Cn2nnc3ccccc32)o1,1.1
9,COc1ccc(C(=O)N2C[C@@H]3CN(CCO3)C(=O)[C@@H]3C[C@@H](CN3Cc3ccc4c(c3)OCO4)NC(=O)C[C@@H]3O[C@H](C2)[C@@H](O)[C@H]3O)cc1,3.4
10,CC1=CCC2COC(C[N+]3(C)CCCCC3)C1C2 (configuration not stated),4.7
11,Fc1ccc(OCc2nn3c(Cn4cnc5ccccc54)nnc3s2)cc1,3.5
12,c1cc(-c2nnc3scnn23)ccn1,4.4
